Reference: publication PMC12257540, “From Inhibitors to PET: SAR-Based Development of [^18F]SK60 for mIDH1 Imaging” (Journal of Medicinal Chemistry, 2025)
Values joined by “and” are separate entries in the source; they are usually repeats but may differ in a detail not shown here. Equal values may be shown once.

Columns and labels:
[1] = target: T1, wtIDH1 (Homo sapiens, UniProt O75874); assay: IDH1 enzyme assay for determination of inhibitory potency (diaphorase/resazurin); type: biochemical; details: 1 h preincubation, 1 h reaction
T1 construct: purchased abcam ab113858
Description: IDH1 enzyme assay is a modified version of the assay used for mIDH1. With the conversion of isocitrate to α-KG, this enzyme stoichiometrically converts NADP to NADPH. It produces NADPH, which directly couples to the diaphorase/resazurin system, and the resorufin production can be measured. The protocols for the determination of inhibition of IDH1 were performed as described by Wang et al. (2013). The IDH1 (ab113858) was purchased from abcam (Cambridge, UK).
Briefly, IDH1 assays were conducted in 50 μL buffer (20 mM TRIS buffer (pH = 7.5), 150 mM NaCl, 10 mM MgCl2, 0.05% BSA and 4 mM β-mercaptoethanol) containing 50 μM NADP, 70 μM DL-isocitrate, and 0.04 μg/mL IDH1 enzyme (reaction time 1 h at room temperature). For inhibition assays, triplicate samples of the ligands in the concentration range from 10^–4 M to 10^–10 M were incubated with the IDH1 for 1 h before the addition of DL-isocitrate and NADP to initiate the reaction together with the direct detection system comprised of 20 μg/mL diaphorase and 4 μM resazurin. The reaction was terminated with the addition of 25 μL of 2% SDS and read on a Synergy H1 microplate reader at Ex544/Em590. The data were imported into GraphPad Prism, and the IC50 values were calculated with a standard dose–response curve fitting (Figure S2, SI).

[2] = target: T2, IDH1R132H (Homo sapiens, UniProt O75874, R132H); assay: Mutant IDH1 enzyme assay for determination of inhibitory potency (diaphorase/resazurin); type: biochemical; details: recombinant IDH1R132H, 30 min preincubation, 60 min reaction
T2 construct: purchased BPS Bioscience BPS-79376
Description: Determination of the activity and inhibition of mutant IDH1 recombinant protein, IDH1R132H, is based on the reduction of α-KG acid to D-2-HG accompanied by a concomitant oxidation of NADPH to NADP. The amount of NADPH remaining at the end of the reaction time is measured in a secondary diaphorase/resazurin reaction, in which the NADPH is consumed in a 1/1 molar ratio with the conversion of resazurin to the highly fluorescent resorufin. For the determination of the inhibitory potential of ligands, the IDH1R132H Assay Kit (BPS-79376, BPS Bioscience, San Diego, CA) was used. […] For inhibition assays, triplicate samples of the ligands in the concentration range from 10^–5 M to 10^–10 M were incubated with the enzyme for 30 min before the addition of α-KG and NADPH to initiate the reaction. The reaction ran for 60 min at room temperature and was terminated with the addition of 25 μL of detection buffer (36 μg/mL diaphorase and […] resazurin) to 50 μL of the reaction solution. The conversion of resazurin to resorufin by diaphorase was measured fluorometrically at Ex544/Em590 (Synergy H1 microplate reader, BioTek, Winooski, VT). The data were imported into GraphPad Prism 4.1 (GraphPad Inc.; La Jolla; CA), and the IC50 values were calculated with a standard dose–response curve fitting (Figure S2, SI).

T1 sequence (O75874 whole entry): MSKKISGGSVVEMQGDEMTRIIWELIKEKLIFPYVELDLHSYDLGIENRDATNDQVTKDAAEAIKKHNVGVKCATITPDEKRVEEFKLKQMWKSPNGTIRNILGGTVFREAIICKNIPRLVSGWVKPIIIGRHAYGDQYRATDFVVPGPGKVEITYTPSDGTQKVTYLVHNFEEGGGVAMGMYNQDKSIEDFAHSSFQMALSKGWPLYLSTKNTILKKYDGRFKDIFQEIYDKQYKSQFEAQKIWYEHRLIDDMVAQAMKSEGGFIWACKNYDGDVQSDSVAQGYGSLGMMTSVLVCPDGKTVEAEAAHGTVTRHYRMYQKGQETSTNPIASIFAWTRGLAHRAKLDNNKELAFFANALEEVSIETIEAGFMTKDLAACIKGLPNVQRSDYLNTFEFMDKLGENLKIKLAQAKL
T2 sequence (O75874 whole entry R132H): as the sequence (O75874 whole entry) above, with R132H counted along it

CC1(C)CN(C(=O)c2ccc[nH]2)Cc2c(C(=O)Nc3ccccc3)nn(Cc3ccc(F)cc3)c21 [Compound 23, 1-(4-fluorobenzyl)-7,7-dimethyl-N-phenyl-5-(1H-pyrrole-2-carbonyl)-4,5,6,7-tetrahydro-1H-pyrazolo[4,3-c]pyridine-3-carboxamide]
IC50 [1]: > 10 µM | IC50 [2]: 0.0247 µM and 0.064 µM

CC1(C)CN(C(=O)c2ccc[nH]2)Cc2c(C(=O)Nc3ccccc3F)nn(Cc3ccc(F)cc3)c21 [Compound 27, 1-(4-fluorobenzyl)-N-(2-fluorophenyl)-7,7-dimethyl-5-(1H-pyrrole-2-carbonyl)-4,5,6,7-tetrahydro-1H-pyrazolo[4,3-c]pyridine-3-carboxamide]
IC50 [2]: 0.196 µM

CC1(C)CN(C(=O)c2ccc[nH]2)Cc2c(C(=O)Nc3cccnc3)nn(Cc3ccc(F)cc3)c21 [Compound 30, 1-(4-fluorobenzyl)-7,7-dimethyl-N-(pyridin-3-yl)-5-(1H-pyrrole-2-carbonyl)-4,5,6,7-tetrahydro-1H-pyrazolo[4,3-c]pyridine-3-carboxamide]
IC50 [1]: > 10 µM | IC50 [2]: 0.631 µM and 0.648 µM

CC1(C)CN(C(=O)c2ccc[nH]2)Cc2c(C(=O)NC34CC5CC(CC(C5)C3)C4)nn(Cc3ccc(F)cc3)c21 [Compound 33]
IC50 [1]: > 10 µM | IC50 [2]: 0.163 ± 0.0396 µM

CC1(C)CN(C(=O)c2ccc[nH]2)Cc2c(C(=O)N3CCCCC3)nn(Cc3ccc(F)cc3)c21 [Compound 35]
IC50 [1]: > 10 µM | IC50 [2]: > 1 µM

CC1(C)CN(C(=O)c2ccc[nH]2)Cc2c(C(=O)NC3CCCC3)nn(Cc3ccc(F)cc3)c21 [Compound 36]
IC50 [1]: > 10 µM | IC50 [2]: 5.9 µM

CC1(C)CN(C(=O)c2ccc[nH]2)Cc2c(C(=O)N3CCOCC3)nn(Cc3ccc(F)cc3)c21 [Compound 37]
IC50 [1]: > 10 µM | IC50 [2]: > 10 µM

CCCOCCNC(=O)c1nn(Cc2ccc(F)cc2)c2c1CN(C(=O)c1ccc[nH]1)CC2(C)C [Compound 39]
IC50 [1]: > 10 µM | IC50 [2]: > 5 µM

CN(C)C(=O)c1nn(Cc2ccc(F)cc2)c2c1CN(C(=O)c1ccc[nH]1)CC2(C)C [Compound 41]
IC50 [1]: > 10 µM | IC50 [2]: > 10 µM

CC1(C)CN(C(=O)c2ccc[nH]2)Cc2c(C(N)=O)nn(Cc3ccc(F)cc3)c21 [Compound 42]
IC50 [1]: > 10 µM | IC50 [2]: 5.02 µM

Cc1cccc(NC(=O)c2nn(CCCCF)c3c2CN(C(=O)c2ccc[nH]2)CC3(C)C)c1 [Compound 47, 1-(4-fluorobutyl)-7,7-dimethyl-5-(1H-pyrrole-2-carbonyl)-N-(m-tolyl)-4,5,6,7-tetrahydro-1H-pyrazolo[4,3-c]pyridine-3-carboxamide]
IC50 [1]: > 10 µM | IC50 [2]: 0.571 µM

Cc1cccc(NC(=O)c2nn(Cc3ccc(F)cc3)c3c2CN(C(=O)C(C)(C)CF)CC3(C)C)c1 [Compound 60, 5-(3-fluoro-2,2-dimethylpropanoyl)-1-(4-fluorobenzyl)-7,7-dimethyl-N-(m-tolyl)-4,5,6,7-tetrahydro-1H-pyrazolo[4,3-c]pyridine-3-carboxamide]
IC50 [2]: 1.3 µM
